Test results: patent publication US3932423A, “Imidazolido(1,5-c)thiazolidine-3-spiro-4-piperidines” (Yoshitomi Pharmaceutical Industries, priority 1973, dated 1976)

Columns and labels:
mice [1] = experiment: Suppression of Spontaneous Motility; format: in vivo, dd-strain, male; settings: Mus musculus, ip; counted for 20 minutes, 40 minutes after administration; dose for 50 percent suppression
Procedure: The spontaneous motility of mice was counted by magnetic counter of photocell method according to P. B. Dews in "British Gournal of Pharmacology", vol. 8, p. 46 ff. (1953). Forty minutes after the intraperitoneal administration of the test compound, the spontaneous motility was counted for 20 minutes.

mice [2] = experiment: Reserpine Potentiation; format: in vivo, dd-strain, female; settings: Mus musculus, po, 30 minutes before reserpine 10 mg./kg. i.p.; dose potentiating reserpine effect by 30 percent 15 minutes after reserpine; read-out: Reserpine Potentiation PD30
Procedure: Reserpine potentiation was measured by the method described by M. D. Aceto in "Toxicology and Applied Pharmacology," vol. 7, p. 329 ff. (1965). […] The degree of blepharoptosis of both eyes was observed 15, 60, 120 and 180 minutes after the administration of reserpine.

mice [3] = experiment: Antimescaline Effect; format: in vivo, female; settings: Mus musculus, po, 60 minutes prior to mescaline sulfate 30 mg./kg. i.p.; prevention of scratching in 50 percent of animals
Procedure: A modification of the method of R. A. Turner [Screening Method in Pharmacology, Edited by R. A. Turner, p. 73, Academic Press (1965)] was used to study the prevention of scratching episodes induced by mescaline. The test compound was given to groups each of 6 female mice orally 60 minutes prior to treatment with mescaline sulfate (30 mg./kg. of body weight, intraperitoneal).

Acute Toxicity = experiment: Acute Toxicity; design: species or system mice, female; settings: mouse, in vivo, po; lethal rate within two days
Procedure: The test compound was orally administered to groups each of 5 female mice respectively. The LD50 was calculated from the lethal rate (50 percent) within two days after administration of the test compound.

mice [4] = experiment: Methamphetamine Group Toxicity; settings: Mus musculus, po, 5 h, read-out: Methamphetamine Group Toxicity, ED50
mice [5] = experiment: Suppression of Fighting Behavior; format: in vivo, dd-strain, female; settings: Mus musculus, po, 60 minutes prior to electric foot-shock; dose to suppress 50 percent of fighting pairs
Procedure: 125, p. 28 ff. (1959). […] The ED50, the dose required to suppress 50 percent of fighting pairs, was determined graphically.

Compound	ED50 (mice [1]) [mg/kg]	ED30 (mice [2]) [mg/kg]	ED50 (mice [3]) [mg/kg]	LD50 at 48 h (Acute Toxicity) [mg/kg]	ED50 (mice [4]) [mg/kg]	ED50 (mice [5]) [mg/kg]
CN1C(=O)C2CSC3(CCN(CCCC(=O)c4ccc(F)cc4)CC3)N2C1=O (stereo not drawn) [Compound A, 5,7-dioxo-6-methylimidazolido[1,5-c]thiazolidine-3-spiro-4'-[1'-(4-p-fluorophenyl-4-oxobutyl)piperidine]]	0.1	1.9	0.1	> 1000	1.1	2.6
NC(=O)C1(N2CCCCC2)CCN(CCCC(=O)c2ccc(F)cc2)CC1 [Floropipamide]	1	2.5	1	> 1000	9.2	5.6
